Results reported in paper PMC9271048, “Probing strigolactone perception mechanisms with rationally designed small-molecule agonists stimulating germination of root parasitic weeds” (Nature Communications, 2022).
Read-outs that look alike come from different tables or passages of the source.

Experiments:
ShHTL7 [1] = molecular target: T1, ShHTL7 (Striga hermonthica, UniProt A0A0M3PNA2); assay: Competitive inhibition of ShHTL7 with Yoshimulactone Green (YLG) as substrate; type: biochemical
Description: Based on the structural feature of the lead compound 2h, we selected three regions to perform further modification (Supplementary Fig. 6), to try to further improve bioactivity. Insertion of a carbonyl group between the bicyclo[2.2.1]hept-5-en-2-yl group and the piperazine ring was detrimental to binding affinity (Supplementary Fig. 6, region A). Removal of an oxygen atom in region B was found unfavorable to binding affinity as well. Therefore, we focused on modifying the benzene ring (region C) for 2h. A series of compounds with different groups at region C was synthesized (Supplementary Scheme 1). […] As SPR just measures the binding ability, another independent assay by using Yoshimulactone Green (YLG) as the fluorescent substrate was performed to determine the half-maximal inhibitory concentration (IC50) of these compounds against ShHTL7[22].
(§1) The excitation and emission wavelengths of YLG are 480 and 520 nm, respectively. We used a fluorescence spectrophotometer (CARY Eclipse) to detect the fluorescence intensity change of YLG during the enzymatic hydrolysis assay process. All the testing compounds and YLG were dissolved in DMSO and prepared as stock solutions just before use. […] The changes of fluorescence at 520 nm of each well were recorded every 1 min for 30 min. Using the reaction mixture without adding enzyme and tested compounds as the background control. After subtracting the background hydrolysis, a linear fluorescence increase in 8 min was used for further inspection. The IC50 values were determined via fitting relative inhibition percentages with the varying concentrations of compounds in Microsoft Excel.

P. aegyptiaca seeds = assay: P. aegyptiaca seed germination assay; type: in vivo, Phelipanche aegyptiaca; parameters: P. aegyptiaca seed germination activity, source data average: unit of the concentration uncertain; settings: for P. aegyptiaca seed germination activity, source data average: Supplementary Fig. 9b; for EC50: Phelipanche aegyptiaca
Description: P. aegyptiaca seeds were harvested from Xinjiang province, China in 2017. The seeds were surface sterilized using 1% NaClO solution for 2 min and then washed with distilled water six times. For seed germination assay, about 20 pieces of glass fiber-filter paper discs (15 mm diameter, Whatman GF/B) were placed separately on two layers of filter papers (9 cm diameter, Whatman) in a Petri dish. Five milliliters of distilled water was added to each Petri dish to wet the papers. Approximately 40–90 sterilized seeds were spread onto each glass fiber-filter paper disc. After the seeds were conditioned in the dark at 25 °C for 4 days[48], glass fiber-filter paper discs were blotted dry on filter papers (9 cm) and transferred to the wells of 24-well cell culture plates. The testing compounds were dissolved in acetone and diluted with H2O (VH2O/Vacetone = 999/1) just before use[49]. rac-GR24 and 1‰ acetone solution were used as positive and negative controls, respectively. One hundred microliters of the test solution was added to each well of the plates, and all treatments were performed in three biological repeats. The plates were sealed and incubated in the dark at 25 °C for a week. The experiments were performed at least three times. The germinated seeds were observed by using an electronic magnifier at ×20 magnification.

ShHTL7 [2] = molecular target: T1, ShHTL7; assay: ShHTL7-hydrolysis reaction analysis (HPLC); type: biochemical; settings: 10 μM compound, 30 °C, 30 min; for relative percentage of hydrolysis by ShHTL7, source data average: Supplementary Figs. 11, 20a, 24a
Description: Compounds 4a, (R)- and (S)-4a, 4g-i, and rac-GR24 were dissolved in DMSO and prepared as stock solution ([…]) just before use. A 200 μL of the reaction solution consisting of PBS buffer (pH 7.3), 10 μM samples, and 10 μg recombinant ShHTL7 or its mutants was incubated at 30 °C for 30 min; with the reaction solution (200 μL) containing PBS buffer (pH 7.3) and 10 μM samples as the blank control[40],[52]. Subsequently, the reaction was terminated by adding 200 μL of methanol, and then the reaction mixture was shaken for 10 s and centrifuged at 5310 × g for 60 s. The supernatant was filtered and the remaining amount of samples was analyzed by HPLC. The relative percentages of hydrolysis were obtained by using the amount of compounds in blank control as reference.
Supplementary Fig. 11. Hydrolysis of 4a, (R)-4a, (S)-4a, 4g-i, and rac-GR24 by ShHTL7 at 30 °C for 30 min. The remaining amounts of compounds in recombinant ShHTL7 protein and buffer solution were determined by HPLC analysis. The relative percentages of hydrolysis were calculated by using the amount of compounds in the buffer as reference. The error bar indicates SD (n = 3 biologically independent experiments).
(§2) (1 picture or pasted object on this page, not shown here)

[3] = system: ShHTLs (10 HTL proteins in S. hermonthica); assay: YLG-based competition assay on HTL proteins of S. hermonthica; type: biochemical, Striga hermonthica; settings: Supplementary Fig. 27
From the text: In P. aegyptiaca, 5 KAI2s have been proposed as the SL receptors for the regulation of seed germination. […] The high sequence similarity may explain the consistency of these compounds in inducing germination in both S. hermonthica and P. aegyptiaca.
as §1
Supplementary Fig. 27. Binding of compounds 4a, (R)- and (S)-4a, and 4g-i to the HTL proteins in S. hermonthica and KAI2 protein homologs in P. aegyptiaca. In the competitive inhibitory activity assay, YLG (3 µM) was used as the fluorogenic substrate. Error bar indicates SD (n = 3 biologically independent experiments).
as §2

[4] = ShHTL7, YLG competition, Supplementary Fig. 27, read-out: IC50, replicate 1
[5] = ShHTL7, YLG competition, Supplementary Fig. 27, read-out: IC50, replicate 2
[6] = ShHTL7, YLG competition, Supplementary Fig. 27, read-out: IC50, replicate 3
[7] = wild-type ShHTL7, average of 3, source data of Fig. 2a,b, Supplementary Figs. 8a, 9a, 20b, read-out: IC50, competitive ShHTL7 inhibition (YLG), source data average
[8] = ShHTL2, YLG competition, read-out: IC50, replicate 1
[9] = ShHTL2, YLG competition, read-out: IC50, replicate 2
[10] = ShHTL2, YLG competition, read-out: IC50, replicate 3
[11] = ShHTL2, average of 3 replicates, read-out: IC50, average
[12] = ShHTL3, YLG competition, read-out: IC50, replicate 1
[13] = ShHTL3, YLG competition, read-out: IC50, replicate 2
[14] = ShHTL3, YLG competition, read-out: IC50, replicate 3
[15] = ShHTL3, average of 3 replicates, read-out: IC50, average
[16] = ShHTL4, YLG competition, read-out: IC50, replicate 1
[17] = ShHTL4, YLG competition, read-out: IC50, replicate 2
[18] = ShHTL4, YLG competition, read-out: IC50, replicate 3
[19] = ShHTL4, average of 3 replicates, read-out: IC50, average
[20] = ShHTL5, YLG competition, read-out: IC50, replicate 1
[21] = ShHTL5, YLG competition, read-out: IC50, replicate 2
[22] = ShHTL5, YLG competition, read-out: IC50, replicate 3
[23] = ShHTL5, average of 3 replicates, read-out: IC50, average
[24] = ShHTL6, YLG competition, read-out: IC50, replicate 1
[25] = ShHTL6, YLG competition, read-out: IC50, replicate 2
[26] = ShHTL6, YLG competition, read-out: IC50, replicate 3
[27] = ShHTL6, average of 3 replicates, read-out: IC50, average
[28] = ShHTL8, YLG competition, read-out: IC50, replicate 1
[29] = ShHTL8, YLG competition, read-out: IC50, replicate 2
[30] = ShHTL8, YLG competition, read-out: IC50, replicate 3
[31] = ShHTL8, average of 3 replicates, read-out: IC50, average
[32] = ShHTL9, YLG competition, read-out: IC50, replicate 1
[33] = ShHTL9, YLG competition, read-out: IC50, replicate 2
[34] = ShHTL9, YLG competition, read-out: IC50, replicate 3
[35] = ShHTL9, average of 3 replicates, read-out: IC50, average
[36] = ShHTL10, YLG competition, read-out: IC50, replicate 1
[37] = ShHTL10, YLG competition, read-out: IC50, replicate 2
[38] = ShHTL10, YLG competition, read-out: IC50, replicate 3
[39] = ShHTL10, average of 3 replicates, read-out: IC50, average
[40] = ShHTL11, YLG competition, read-out: IC50, replicate 1
[41] = ShHTL11, YLG competition, read-out: IC50, replicate 2
[42] = ShHTL11, YLG competition, read-out: IC50, replicate 3
[43] = ShHTL11, average of 3 replicates, read-out: IC50, average

T1 sequence (A0A0M3PNA2 entry or part of it): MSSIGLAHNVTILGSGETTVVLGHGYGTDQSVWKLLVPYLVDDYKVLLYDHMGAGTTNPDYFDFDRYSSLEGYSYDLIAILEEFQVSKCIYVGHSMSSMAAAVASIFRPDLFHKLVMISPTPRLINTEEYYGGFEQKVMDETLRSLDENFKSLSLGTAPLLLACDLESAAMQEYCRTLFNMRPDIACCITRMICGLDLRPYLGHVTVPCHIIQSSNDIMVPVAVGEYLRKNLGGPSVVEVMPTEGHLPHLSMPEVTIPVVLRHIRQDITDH

In the case of `CC1=CC(OC(=O)N2CCN(C(=O)COc3ccc(Br)cc3C)CC2)CC1=O` (centres unmarked) [4g], the IC50 (ShHTL7 [1]; [4]) is reported as 3.08 µM, the IC50 (ShHTL7 [1]; [5]) is reported as 1.61 µM and the IC50 (ShHTL7 [1]; [6]) is reported as 1.97 µM. The IC50 (ShHTL7 [1]; [7]) was 2.22 µM, the “P. aegyptiaca seed germination activity, source data average” value (shortened to “P. aegyptiaca seed germination activity”) (P. aegyptiaca seeds; 0.1 (unit uncertain) as printed) was 11.4951% and the “P. aegyptiaca seed germination activity” value (P. aegyptiaca seeds; 1 (unit uncertain) as printed) was 63.9751%. The “P. aegyptiaca seed germination activity” value (P. aegyptiaca seeds; 10 (unit uncertain) as printed) was 69.9023%, the “relative percentage of hydrolysis by ShHTL7, source data average” value (ShHTL7 [2]) was 10.7551% and the IC50 [3, 8] was 65.2 µM. It also gave an IC50 [3, 9] of 66 µM, an IC50 [3, 10] of 64.5 µM and an IC50 [3, 11] of 65.2 µM. The IC50 [3, 12] was 40.5 µM, the IC50 [3, 13] was 33.3 µM and the IC50 [3, 14] was 28.5 µM. It also gave an IC50 [3, 15] of 34.1 µM, an IC50 [3, 16] of 19.2 µM and an IC50 [3, 17] of 17.8 µM. The IC50 [3, 18] was 16.1 µM, the IC50 [3, 19] was 17.7 µM and the IC50 [3, 20] was 40.1 µM. The IC50 [3, 21] was 35.7 µM, the IC50 [3, 22] was 41.8 µM and the IC50 [3, 23] was 39.2 µM. For the same compound, the IC50 [3, 24] was 53 µM, the IC50 [3, 25] was 37.4 µM and the IC50 [3, 26] was 61.5 µM. The IC50 [3, 27] was 50.6 µM, the IC50 [3, 28] was 61 µM and the IC50 [3, 29] was 62 µM. It also gave an IC50 [3, 30] of 51.8 µM, an IC50 [3, 31] of 58.3 µM and an IC50 [3, 32] of 31.2 µM. It also gave an IC50 [3, 33] of 38.7 µM, an IC50 [3, 34] of 46.2 µM and an IC50 [3, 35] of 38.7 µM. It also gave an IC50 [3, 36] of 49.6 µM, an IC50 [3, 37] of 54.6 µM and an IC50 [3, 38] of 55.2 µM. The IC50 [3, 39] was 53.1 µM, the IC50 [3, 40] was 55.9 µM and the IC50 [3, 41] was 54.7 µM. For the same compound, the IC50 [3, 42] was 58.2 µM and the IC50 [3, 43] was 56.3 µM.

For `CC1=CC(OC(=O)N2CCN(C(=O)COc3ccc(Br)cc3C)CC2)OC1=O` (centres unmarked) [4a], the IC50 (ShHTL7 [1]; [4]) was 0.953 µM, the IC50 (ShHTL7 [1]; [5]) was 1.35 µM and the IC50 (ShHTL7 [1]; [6]) was 1.32 µM. The IC50 (ShHTL7 [1]; YLG as substrate, text and Fig. 2, read-out: IC50, competitive ShHTL7 inhibition (YLG assay)) was 1.21 ± 0.22 µM, the IC50 (ShHTL7 [1]; [7]) was 1.21 µM and the EC50 (P. aegyptiaca seeds; read-out: EC50, P. aegyptiaca seed germination) was about 0.0862 nM. The EC50 (P. aegyptiaca seeds; source data of Fig. 2c and Supplementary Fig. 8b, average of 3, read-out: P. aegyptiaca germination EC50 values, source data average (converted)) was 0.0628 nM, the “hydrolysis by ShHTL7” value (ShHTL7 [2]) was 36.4% and the “relative percentage of hydrolysis by ShHTL7, source data average” value (ShHTL7 [2]) was 36.438%. It also gave an IC50 [3, 8] of 56.1 µM, an IC50 [3, 9] of 49 µM and an IC50 [3, 10] of 62.1 µM. For the same compound, the IC50 [3, 11] was 55.8 µM, the IC50 [3, 12] was 43.3 µM and the IC50 [3, 13] was 41.4 µM. It also gave an IC50 [3, 14] of 44.5 µM, an IC50 [3, 15] of 43 µM and an IC50 [3, 16] of 6.23 µM. For the same compound, the IC50 [3, 17] was 4.7 µM, the IC50 [3, 18] was 3.91 µM and the IC50 [3, 19] was 4.95 µM. For the same compound, the IC50 [3, 20] was 18.6 µM, the IC50 [3, 21] was 15.2 µM and the IC50 [3, 22] was 13.3 µM. The IC50 [3, 23] was 15.7 µM, the IC50 [3, 24] was 28.4 µM and the IC50 [3, 25] was 23.6 µM. For the same compound, the IC50 [3, 26] was 18.4 µM, the IC50 [3, 27] was 23.5 µM and the IC50 [3, 28] was 14.7 µM. For the same compound, the IC50 [3, 29] was 15.3 µM, the IC50 [3, 30] was 21.5 µM and the IC50 [3, 31] was 17.2 µM. For the same compound, the IC50 [3, 32] was 20.4 µM, the IC50 [3, 33] was 21.8 µM and the IC50 [3, 34] was 26.6 µM. The IC50 [3, 35] was 22.9 µM, the IC50 [3, 36] was 31.1 µM and the IC50 [3, 37] was 39.7 µM. The IC50 [3, 38] was 31 µM, the IC50 [3, 39] was 33.9 µM and the IC50 [3, 40] was 9.32 µM. For the same compound, the IC50 [3, 41] was 9.73 µM, the IC50 [3, 42] was 13.1 µM and the IC50 [3, 43] was 10.7 µM.
